Experimental data from BindingDB's records for doi:10.1016/j.bmc.2018.12.038 (Peking University, 2019).

Biological target: T1, CD81 antigen (Homo sapiens, UniProt P60033)
T1 sequence (P60033 whole entry): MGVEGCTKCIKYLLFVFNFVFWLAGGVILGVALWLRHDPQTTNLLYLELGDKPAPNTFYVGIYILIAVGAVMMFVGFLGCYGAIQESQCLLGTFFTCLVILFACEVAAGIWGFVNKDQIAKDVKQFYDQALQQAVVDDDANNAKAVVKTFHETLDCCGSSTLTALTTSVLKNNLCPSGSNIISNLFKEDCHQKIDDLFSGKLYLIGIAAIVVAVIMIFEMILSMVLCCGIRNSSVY
Experiment: Binding affinity to CD81 (unknown origin) assessed as […] rate constant by surface plasmon resonance assay
Conditions: read-out: kon (M-1-s-1)

kon	SMILES
2.53e+08 M⁻¹ s⁻¹	C/C(=C\CC[C@]1(C)[C@@H](C(=O)O)C[C@H]1[C@](C)(O)C(=O)O)C(=O)O
2.02e+06 M⁻¹ s⁻¹	CC(=O)[C@@H]1C[C@H](C(=O)O)[C@@]1(C)CC/C=C(\C)C(=O)O
